Assay results as given in paper PMC9535653 (ACS Omega, 2022).

Columns and labels:
C-domain of ACE = settings: ref [20],[21], cited from earlier work
Truncated C-domain ACE = experiment: fluorimetric ACE activity assay, truncated C-domain; format: biochemical; settings: at micromolar concentrations under identical assay conditions
N-domain (ACE) = settings: read-out: Ki, N-domain, ref [20],[21]; cited from earlier work

Sequence of Truncated C-domain ACE (P12821 643-1222 limits assumed): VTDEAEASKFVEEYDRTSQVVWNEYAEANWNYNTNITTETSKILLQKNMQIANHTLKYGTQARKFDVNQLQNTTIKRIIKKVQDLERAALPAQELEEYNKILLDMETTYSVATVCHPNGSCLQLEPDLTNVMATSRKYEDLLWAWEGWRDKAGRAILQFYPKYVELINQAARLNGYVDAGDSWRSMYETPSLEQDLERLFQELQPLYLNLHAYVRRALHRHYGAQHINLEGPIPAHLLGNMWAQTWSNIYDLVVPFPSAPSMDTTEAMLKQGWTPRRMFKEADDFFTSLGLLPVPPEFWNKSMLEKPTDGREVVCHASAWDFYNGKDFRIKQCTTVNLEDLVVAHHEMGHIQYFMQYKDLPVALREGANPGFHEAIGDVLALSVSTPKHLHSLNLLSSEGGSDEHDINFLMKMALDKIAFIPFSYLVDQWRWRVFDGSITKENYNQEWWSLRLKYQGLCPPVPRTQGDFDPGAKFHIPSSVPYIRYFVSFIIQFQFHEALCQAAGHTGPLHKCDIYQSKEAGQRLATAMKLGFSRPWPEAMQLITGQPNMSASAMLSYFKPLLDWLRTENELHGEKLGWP

(2-(((R)-1-(((Benzyloxy)carbonyl)amino)-2-phenylethyl)(hydroxy)phosphoryl)cyclopentane-1-carbonyl)-L-tryptophan [RXPA380]
potency and selectivity for C-domain of ACE (in words) (C-domain of ACE; C-domain versus N-domain): the most potent and selective C domain of ACE | Ki (C-domain of ACE; read-out: Ki, C-domain, ACE C-domain): 0.003 µM | Inhibition of C-domain by parent (in words) (Truncated C-domain ACE): completely inhibits the C-domain at micromolar concentrations | Ki (N-domain (ACE)): 10 µM
